Laboratory results from ChEMBL document CHEMBL4052625, “The evaluation of 1,4-benzoquinones as inhibitors of human monoamine oxidase” (Eur J Med Chem, 2017).

Assays:
[1] = target: T1, Amine oxidase [flavin-containing] A (Homo sapiens, UniProt P21397); assay: Inhibition of recombinant human MAO-A expressed in baculovirus infected BTI insect cell microsomes using kynuramine as substrate after 20 mins by fluorescence spectroscopy
T1 sequence (P21397 whole entry): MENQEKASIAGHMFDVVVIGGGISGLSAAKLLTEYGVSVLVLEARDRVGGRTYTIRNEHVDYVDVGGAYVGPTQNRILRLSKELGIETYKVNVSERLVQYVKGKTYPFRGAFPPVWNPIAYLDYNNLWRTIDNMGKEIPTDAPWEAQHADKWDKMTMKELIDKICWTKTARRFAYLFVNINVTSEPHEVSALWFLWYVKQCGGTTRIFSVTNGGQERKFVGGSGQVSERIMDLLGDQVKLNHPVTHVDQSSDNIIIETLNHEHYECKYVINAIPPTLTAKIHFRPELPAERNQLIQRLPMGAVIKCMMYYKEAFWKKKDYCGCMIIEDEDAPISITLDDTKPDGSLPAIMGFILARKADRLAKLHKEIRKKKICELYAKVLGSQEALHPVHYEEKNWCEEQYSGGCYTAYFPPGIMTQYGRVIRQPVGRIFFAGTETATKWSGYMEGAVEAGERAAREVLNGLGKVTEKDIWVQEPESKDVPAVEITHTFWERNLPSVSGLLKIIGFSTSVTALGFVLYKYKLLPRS

[2] = target: T2, Amine oxidase [flavin-containing] B (Homo sapiens, UniProt P27338); assay: Inhibition of recombinant human MAO-B expressed in baculovirus infected BTI insect cell microsomes using kynuramine as substrate after 20 mins by fluorescence spectroscopy
T2 sequence (P27338 whole entry): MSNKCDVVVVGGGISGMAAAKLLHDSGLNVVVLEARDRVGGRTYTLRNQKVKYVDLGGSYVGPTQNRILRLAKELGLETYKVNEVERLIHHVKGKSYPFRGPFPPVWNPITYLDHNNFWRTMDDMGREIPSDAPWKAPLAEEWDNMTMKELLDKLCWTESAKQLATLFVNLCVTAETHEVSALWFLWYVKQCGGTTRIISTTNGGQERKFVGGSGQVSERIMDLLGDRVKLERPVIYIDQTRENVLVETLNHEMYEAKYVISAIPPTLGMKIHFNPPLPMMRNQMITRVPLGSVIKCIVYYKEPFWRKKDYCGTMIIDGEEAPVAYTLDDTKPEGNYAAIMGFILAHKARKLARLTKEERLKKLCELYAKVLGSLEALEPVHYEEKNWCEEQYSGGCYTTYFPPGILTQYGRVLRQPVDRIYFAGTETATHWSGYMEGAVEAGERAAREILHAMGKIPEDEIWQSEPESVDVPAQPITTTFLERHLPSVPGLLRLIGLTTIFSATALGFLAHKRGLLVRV

[3] = species: Homo sapiens; assay: Selectivity index, ratio of IC50 for recombinant human MAO-B to IC50 for recombinant human MAO-A expressed in baculovirus infected BTI insect cell microsomes
[4] = target: T1, Amine oxidase [flavin-containing] A; assay: Competitive inhibition of human brain mitochondria MAO-A using kynuramine as substrate by Lineweaver-Burk analysis
[5] = target: T2, Amine oxidase [flavin-containing] B; assay: Non-competitive inhibition of human brain mitochondria MAO-B using kynuramine as substrate by Lineweaver-Burk analysis
[6] = target: T2, Amine oxidase [flavin-containing] B; assay: Inhibition of human liver mitochondria MAO-B using 1-methyl-4-phenyl-1,2,3,6-tetrahydropyridine as substrate after 15 mins by spectrophotometric analysis
[7] = target: T1, Amine oxidase [flavin-containing] A; assay: Inhibition of human gastrointestinal mitochondria MAO-A using 1-methyl-4-(1-methylpyrrol-2-yl)-1,2,3,6-tetrahydropyridine as substrate after 30 mins by spectrophotometric analysis
[8] = target: T1, Amine oxidase [flavin-containing] A; assay: Irreversible inhibition of recombinant human MAO-A expressed in baculovirus infected BTI insect cell microsomes assessed as residual activity using kynuramine as substrate at 13 uM preincubated for 15 mins with subsequent dialysis for 24 hrs followed by substrate addition measured after 20 mins by fluorescence spectroscopy relative to negative control; details: read-out: INH

SMILES | IC50 [1] [µM] | IC50 [2] [µM] | Ratio IC50 [3] | Ki [4] [µM] | Ki [5] [µM] | Ki [6] [µM] | Ki [7] [µM] | activity at 13 µM [8] [%]
O=C1C=CC(=O)C(c2ccccc2)=C1 | 5.03 | 7.87 | 1.6 |  |  |  |  | 
O=C1C=CC(=O)C=C1 [BENZOQUINONE] | 4.82 | 10.2 | 2.1 | 9.62 | 20.3 |  |  | 
CC1=C(C)C(=O)c2cc(C)ccc2C1=O |  |  |  |  |  | 6 | 3 | 
O=C1C=CC(=O)C(Cc2ccccc2)=C1 | 5.37 | 23.2 | 4.3 |  |  |  |  | 
C#CCN(C)Cc1ccccc1 [PARGYLINE] |  |  |  |  |  |  |  | 0.1 to 1.6
O=C1C=CC(=O)C(C2CCCC2)=C1 | 5.84 | 17.8 | 3 |  |  |  |  | 
O=C1C=CC(=O)C(OCc2ccccc2)=C1 | 13.2 | 3.69 | 0.3 |  |  |  |  | 
